Data: PubChem BioAssay (NCI)
Where “and” joins values, the source holds several entries; their conditions need not be identical. Equal values may be shown once.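 Following 48 hours of exposure in 96-well plates, responses at five concentrations were used to interpolate endpoints linearly. Here, GI50 denotes the concentration required for 50% inhibition of growth. Definition used: TGI = concentration required for complete inhibition of growth.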

What was measured:
Assay in all cases: NCI anticancer screen, dose series, 48 h
SK-OV-3 ovarian = test system: SK-OV-3 ovarian
UO-31 renal = test system: UO-31 renal
HOP-62 NSCLC = test system: HOP-62 NSCLC
NCI-H226 lung = test system: NCI-H226 lung
UACC-62 melanoma = test system: UACC-62 melanoma
EKVX NSCLC = test system: EKVX NSCLC
DU-145 prostate = test system: DU-145 prostate
PC-3 prostate = test system: PC-3 prostate
SK-MEL-5 melanoma = test system: SK-MEL-5 melanoma
A498 renal = test system: A498 renal

Row | SMILES | GI50 (SK-OV-3 ovarian) | TGI (SK-OV-3 ovarian) | GI50 (UO-31 renal) | TGI (UO-31 renal) | GI50 (HOP-62 NSCLC) | TGI (HOP-62 NSCLC) | GI50 (NCI-H226 lung) | TGI (NCI-H226 lung) | GI50 (UACC-62 melanoma) | TGI (UACC-62 melanoma) | GI50 (EKVX NSCLC) | TGI (EKVX NSCLC) | GI50 (DU-145 prostate) | TGI (DU-145 prostate) | GI50 (PC-3 prostate) | TGI (PC-3 prostate) | GI50 (SK-MEL-5 melanoma) | TGI (SK-MEL-5 melanoma) | GI50 (A498 renal) | TGI (A498 renal)
1 | CC[C@H](C)n1cc(C)c2c(C(=O)NCc3c(C)cc(C)[nH]c3=O)cc(-c3ccc(N4CCNCC4)nc3)cc21 | 19.1 µM and 14.6 µM | 33.5 µM and 28 µM | 15.3 µM and 12.9 µM | 29.6 µM and 27.3 µM | 17.1 µM and 14.9 µM | 33.1 µM and 29.8 µM | 16.3 µM and 17.3 µM | 36.5 µM and 36.9 µM | 17.5 µM and 14.3 µM | 33.2 µM and 28.5 µM | 12.6 µM and 13.6 µM | 27 µM and 27.6 µM | 14.7 µM and 15.1 µM | 27.9 µM and 28.7 µM | 17.3 µM and 13.9 µM | 31.5 µM and 27.3 µM | 15.8 µM and 6.13 µM | 29.2 µM and 18 µM | 15.4 µM and 12.6 µM | 30 µM and 26.9 µM
2 | O=C1/C(=C/c2ccccc2)CCC/C1=C\c1ccccc1 | 6.28 µM | 12 µM and 43.1 µM and 46.7 µM | 6.04 µM and 12.5 µM | 11 µM and 32.3 µM and 28 µM | 7.64 µM | 13.6 µM and 40 µM and 41.1 µM | 7.83 µM and 12.5 µM | 13.8 µM and 35.1 µM and 33 µM | 6.34 µM | 11.5 µM and 28.4 µM and 29.9 µM | 7.8 µM and 15.8 µM | 14.8 µM and 38.2 µM and 39.1 µM | 16.9 µM | 13.5 µM and 34 µM | 14.3 µM | 11 µM and 42.5 µM | 6.75 µM and 6.37 µM | 12 µM and 26.4 µM and 19.6 µM |  | 29.8 µM and 29.2 µM
3 | CCOC(=O)C1=C(C)NC(=O)NC1c1coc2cc(C)cc(C)c2c1=O (configuration not stated) |  | > 100 µM |  | > 100 µM |  | > 100 µM |  | > 100 µM |  | > 100 µM |  | > 100 µM |  | > 100 µM |  | > 100 µM |  | > 100 µM |  | > 100 µM
4 | CC(=O)OC1CCC2(C)C(=CCC3C2CCC2(C)C(C(C)C(=O)O)CCC32)C1 (configuration not stated) |  | > 100 µM |  | > 100 µM |  | > 100 µM |  | > 100 µM |  | > 100 µM |  | > 100 µM |  | > 100 µM |  | > 100 µM |  | > 100 µM |  | > 100 µM
5 | COc1cc([C@@H]2c3cc4c(cc3[C@@H](O[C@@H]3O[C@@H]5CO[C@@H](c6cccs6)O[C@H]5[C@H](O)[C@H]3O)[C@H]3COC(=O)[C@H]23)OCO4)cc(OC)c1O | 0.456 µM | 10.2 µM | 1.78 µM | 14.7 µM | 0.197 µM | 2.34 µM | 0.152 µM | 0.742 µM | 0.233 µM | 3.3 µM | 4.1 µM | > 100 µM | 0.288 µM | 3.43 µM | 1.69 µM | > 69.7 µM | 0.157 µM | 1.33 µM | 0.284 µM | 2.2 µM
6 | COC(=O)c1ccc([N+](=O)[O-])c(O)c1 |  | > 100 µM |  | > 100 µM |  | > 100 µM |  | > 100 µM |  | > 100 µM |  | > 100 µM |  | > 100 µM |  | > 100 µM |  | > 100 µM |  | > 100 µM
7 | C[C@H]1CC[C@@H]2[C@@H](C)[C@H]3[C@H](C[C@H]4[C@@H]5CC=C6C[C@@H](O)CC[C@]6(C)[C@H]5C[C@H](O)[C@]34C)N2C1 |  | > 100 µM |  | > 100 µM |  | > 100 µM |  | > 100 µM |  | > 100 µM |  | > 100 µM |  | > 100 µM |  | > 100 µM |  | > 100 µM |  | > 100 µM
8 | CC1=C([Se]CC(OC(=O)[C@@H](CO)NC(=O)OC(C)(C)C)C(=O)NC(C)(C)C)C(=O)c2ccccc2C1=O (some centres not stated) | 1.27 µM | 2.55 µM | 1.45 µM | 2.94 µM | 0.53 µM | 1.86 µM | 1.96 µM | 4.21 µM | 1.66 µM | 3.05 µM | 1.76 µM | 3.71 µM | 1.9 µM | 3.37 µM | 1.35 µM | 2.85 µM | 1.59 µM | 2.97 µM | 3.64 µM | 15.2 µM
9 | O=S1(=O)CS(=O)(=O)OCCCO1 |  | > 100 µM |  | > 100 µM |  | > 100 µM |  | > 100 µM |  | > 100 µM |  | > 100 µM |  | > 100 µM |  | > 100 µM |  | > 100 µM |  | > 100 µM
10 | COc1ccc(C2=C(c3cc(OC)c(OC)c(OC)c3)C(=O)CC2)cc1 | 0.179 µM |  | 3.75 µM | > 100 µM | 0.355 µM | > 100 µM | 0.425 µM | > 22.6 µM | 0.0812 µM | > 100 µM | 0.699 µM | > 100 µM | 0.294 µM |  | 0.203 µM | > 100 µM | 0.123 µM | 6.24 µM | 0.0403 µM | 0.429 µM
11 | COC(=O)[C@H](CC(C)C)NC(=O)NC(=O)NC(=O)CI | 17.6 µM | 31.8 µM | 1.64 µM | 3.13 µM | 18.2 µM | 34.2 µM | 2.95 µM | 10 µM | 13.4 µM | 28.2 µM | 16.1 µM | 29.8 µM | 14 µM | 27 µM | 11.8 µM | 25.7 µM | 16.4 µM | 30.3 µM | 17.7 µM | 32.6 µM
12 | Nc1ccccc1NC(=O)c1ccc(CN2CCC/C(=C\c3cccc(Cl)c3)C2=O)cc1 | 0.626 µM | 26.4 µM | 1.4 µM | 6.14 µM | 0.388 µM | > 100 µM | 2.01 µM | 7.06 µM | 0.0517 µM | 14.6 µM | 0.567 µM | > 100 µM | 0.432 µM | 25.7 µM | 0.463 µM | 14.1 µM | 0.0836 µM | 1.08 µM | 0.441 µM | 3.66 µM
